Article PMC10631261 (Chemical Science, 2023)
Where “and” joins values, the source holds several entries; their conditions need not be identical. Equal entries are not always repeated. Where two headings read alike, the source gives them in different places.

Columns and labels:
JMJD5 = JMJD5 (Homo sapiens, UniProt Q8N371); test: biochemical
Text: (§1) To investigate the potential of BNS for selective FIH inhibition, its selectivity was investigated with respect to other 2OG-dependent protein oxidising enzymes, that is PHD2, Jumonji-C domain-containing protein 5 (JMJD5), aspartate/asparagine-β-hydroxylase (AspH) and KDM4A, using reported SPE-MS inhibition assays.[58,61,69,70] In addition to PHD2 and KDM4A, we included AspH and JMJD5 in our selectivity studies, because AspH, like FIH, catalyses protein aspartate- and asparagine-residue hydroxylation (although in epidermal growth factor-like domains),[71,72] and because JMJD5 is structurally closely related to FIH.[73,74]
(§2) 3. Biochemical procedures
(§3) Protein production and purification
(§4) PAGE analysis) according to established procedures.
(§5) FIH, PHD2, AspH, JMJD5 and KDM4A inhibition assays
(§6) The in vitro FIH,1, 2 PHD2,1 AspH,38 JMJD536 and KDM4A39 inhibition assays were performed as […]
(§7) KDM4A). Synthetic peptide substrates were used: HIF-1α C-terminal transactivation domain fragment […]
(§8) H3Lys9 bearing three methyl groups at the N ϵ position, H3Lys4 substituted by an Ala and H3Lys14 substituted by an Ile residue) for KDM4A.39 Peptides were prepared as C-terminal amides by GL Biochem (Shanghai) Ltd. Peptide hydroxylation in the case of FIH, PHD2, AspH and JMJD5 (+16 Da mass shift) or peptide demethylation in the case of KDM4A ( -14 Da mass shift) was monitored by SPE-MS. […]

AspH = AspH (Homo sapiens, UniProt Q12797); test: biochemical
Text: as §1, §2, §3, §4, §5, §6, §7, §8

PHD2 = PHD2 (Homo sapiens, UniProt Q9GZT9); test: biochemical
Method: as §2, §3, §4, §5, §6, §7, §8

FIH = target: T1, FIH (Homo sapiens, UniProt Q9NWT6); test: SPE-MS FIH inhibition assay; type: biochemical; details: for reduction of FIH inhibition compared to 4: IC50 comparison with compound 4
T1 construct: made in house
Method: as §3, §4, §5, §6, §7, §8

KDM4A = KDM4A (Homo sapiens, UniProt O75164); test: biochemical; type: biochemical
Text: as §1, §2, §3, §4, §5, §6, §7, §8

[1] = 0.15 μM FIH, 10.0 μM 2OG, 5.0 μM HIF-1α C-TAD788–822, SPE-MS, read-out: FIH IC50

JMJD5, sequence (Q8N371 whole entry, the tested form may be a part): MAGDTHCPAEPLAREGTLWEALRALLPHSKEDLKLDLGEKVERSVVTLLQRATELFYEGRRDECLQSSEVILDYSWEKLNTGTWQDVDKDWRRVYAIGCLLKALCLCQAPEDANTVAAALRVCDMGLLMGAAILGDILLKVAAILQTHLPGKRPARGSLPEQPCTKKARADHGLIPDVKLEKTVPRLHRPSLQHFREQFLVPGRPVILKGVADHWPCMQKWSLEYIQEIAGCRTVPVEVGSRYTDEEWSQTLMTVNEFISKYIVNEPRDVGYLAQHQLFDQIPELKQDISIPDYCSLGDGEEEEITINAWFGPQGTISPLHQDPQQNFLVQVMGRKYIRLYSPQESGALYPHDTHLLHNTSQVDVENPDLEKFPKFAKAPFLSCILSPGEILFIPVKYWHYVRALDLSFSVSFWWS
PHD2, sequence (Q9GZT9 181-426): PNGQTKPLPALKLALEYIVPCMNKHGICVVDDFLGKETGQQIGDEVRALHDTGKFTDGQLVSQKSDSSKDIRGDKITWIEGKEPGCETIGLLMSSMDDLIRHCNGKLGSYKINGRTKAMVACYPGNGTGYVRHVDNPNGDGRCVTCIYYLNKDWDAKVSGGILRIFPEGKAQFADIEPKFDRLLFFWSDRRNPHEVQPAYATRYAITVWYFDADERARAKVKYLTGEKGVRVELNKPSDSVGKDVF
AspH, sequence (Q12797 315-758): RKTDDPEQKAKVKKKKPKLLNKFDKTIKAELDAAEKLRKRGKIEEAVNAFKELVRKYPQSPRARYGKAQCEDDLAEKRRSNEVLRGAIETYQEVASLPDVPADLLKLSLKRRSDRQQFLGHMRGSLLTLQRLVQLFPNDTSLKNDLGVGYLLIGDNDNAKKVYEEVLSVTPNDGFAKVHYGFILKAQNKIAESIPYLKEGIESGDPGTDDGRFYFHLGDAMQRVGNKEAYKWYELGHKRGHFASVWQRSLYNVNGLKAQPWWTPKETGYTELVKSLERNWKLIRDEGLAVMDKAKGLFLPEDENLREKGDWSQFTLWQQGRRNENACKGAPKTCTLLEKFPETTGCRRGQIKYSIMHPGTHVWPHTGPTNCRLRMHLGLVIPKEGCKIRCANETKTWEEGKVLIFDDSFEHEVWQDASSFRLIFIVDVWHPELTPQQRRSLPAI
T1 sequence (Q9NWT6 whole entry): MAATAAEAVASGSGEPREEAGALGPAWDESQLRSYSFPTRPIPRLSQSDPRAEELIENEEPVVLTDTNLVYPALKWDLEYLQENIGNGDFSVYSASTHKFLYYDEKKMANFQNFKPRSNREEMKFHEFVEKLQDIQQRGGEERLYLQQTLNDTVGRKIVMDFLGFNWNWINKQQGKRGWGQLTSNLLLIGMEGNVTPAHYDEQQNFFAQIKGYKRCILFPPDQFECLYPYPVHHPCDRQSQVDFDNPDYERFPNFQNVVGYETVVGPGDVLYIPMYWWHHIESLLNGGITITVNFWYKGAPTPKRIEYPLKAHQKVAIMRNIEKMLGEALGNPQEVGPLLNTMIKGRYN
KDM4A, sequence (O75164 1-359): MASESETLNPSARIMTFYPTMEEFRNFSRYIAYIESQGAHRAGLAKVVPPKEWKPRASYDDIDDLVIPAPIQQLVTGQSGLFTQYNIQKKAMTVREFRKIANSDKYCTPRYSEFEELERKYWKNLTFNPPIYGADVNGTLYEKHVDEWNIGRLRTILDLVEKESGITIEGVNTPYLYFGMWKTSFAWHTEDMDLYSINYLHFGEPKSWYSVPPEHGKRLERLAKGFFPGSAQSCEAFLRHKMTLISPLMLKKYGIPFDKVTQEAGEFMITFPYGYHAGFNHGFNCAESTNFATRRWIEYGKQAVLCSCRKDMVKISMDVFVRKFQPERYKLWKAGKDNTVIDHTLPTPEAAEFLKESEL

SMILES	IC50 (JMJD5; read-out: JMJD5 IC50)	IC50 (AspH)	IC50 (PHD2)	IC50 (FIH)	IC50 (KDM4A)	further results
O=C(O)Cc1cs/c(=N\C(=O)CS(=O)(=O)c2ccccc2)n1O (hydrate or solvate) [compound 4]						melting point: 179 to 181 °C
CC(C(=O)O)c1cs/c(=N\C(=O)CS(=O)(=O)c2ccccc2)n1O (stereo not drawn) (hydrate or solvate) [compound 6]						melting point: 204 to 207 °C
Cc1s/c(=N\C(=O)CS(=O)(=O)c2ccccc2)n(O)c1CC(=O)O (hydrate or solvate) [compound 7]						melting point: 181 to 182 °C
O=C(O)CCc1cs/c(=N\C(=O)CS(=O)(=O)c2ccccc2)n1O (hydrate or solvate) [compound 13]						melting point: 173 to 176 °C
O=C(O)Cc1cs/c(=N\C(=O)CCS(=O)(=O)c2ccccc2)n1O (hydrate or solvate) [compound 15]						melting point: 182 to 184 °C
C[C@@H]1CN(S(=O)(=O)c2ccccc2)C[C@H]1C(=O)/N=c1\scc(CC(=O)O)n1O (relative stereo) [compound 30]	25.6 ± 0.6 µM	> 100 µM	71.7 ± 26.6 µM	1.7 ± 0.4 µM	> 100 µM	
O=C(O)Cc1cs/c(=N\C(=O)CS(=O)(=O)Cc2ccc3ccccc3c2)n1O [BNS, reference compound]	0.25 ± 0.01 µM	3.36 µM and 3.4 µM		0.3 ± 0.07 µM	67.4 ± 39.8 µM	IC50 (PHD2; 0.15 μM PHD2 181–426, 10.0 μM 2OG, 5.0 μM HIF-1α CODD556–574, SPE-MS): 0.11 µM; increase in FIH inhibitory activity compared with other PHD inhibitors (FIH; as judged by IC50 comparison, ESI Table S1): > 50 fold; selectivity for FIH inhibition over PHD2 inhibition (FIH; as judged by IC50 values): ~0.4 fold
O=C(O)CNC(=O)c1c(O)c2ccccc2n(OCC2CC2)c1=O [Desidustat, reference compound]				41.4 ± 1.1 µM		
O=C(O)CNC(=O)c1c(O)cc(CCc2ccccc2)n2ncnc12 [Enarodustat, reference compound]				> 100 µM		
O=C(O)CNC(=O)c1c(O)c2cc(F)ccc2n(CCC2CC2)c1=O [GSK360A, reference compound]						IC50 (FIH; [1]): > 100 µM
O=C(O)c1cnn(-c2nc3cc(OC(F)(F)F)c(Cl)cc3[nH]2)c1 [JNJ-42041935, reference compound]						IC50 (FIH; [1]): 56.4 ± 1.6 µM
O=C(O)CNC(=O)C1=C(O)CCN(Cc2ccc(Oc3ccc(Cl)cc3)nc2)C1=O [TP0463518, reference compound]						IC50 (FIH; [1]): 39.7 ± 0.6 µM
CCOC(=O)Cc1cs/c(=N\C(=O)CS(=O)(=O)c2ccccc2)n1O [compound 3]	> 100 µM	68 ± 26.8 µM	> 100 µM	> 100 µM	> 100 µM	
O=C(O)Cc1cs/c(=N\C(=O)CS(=O)(=O)c2ccccc2)n1O [compound 4]	0.48 ± 0.01 µM	9.6 ± 1.3 µM		0.28 µM	> 100 µM	
O=C(O)Cc1csc(NC(=O)CS(=O)(=O)c2ccccc2)n1 [compound 5]	> 100 µM	> 100 µM	> 100 µM	> 100 µM	> 100 µM	
CC(C(=O)O)c1cs/c(=N\C(=O)CS(=O)(=O)c2ccccc2)n1O (stereo not drawn) [compound 6]		25.6 ± 12.7 µM		61 ± 3.1 µM	> 100 µM	IC50 (JMJD5): 60.5 ± 1 µM; reduction of FIH inhibition compared to 4 (FIH): > 100 fold
Cc1s/c(=N\C(=O)CS(=O)(=O)c2ccccc2)n(O)c1CC(=O)O [compound 7]	> 100 µM	24.3 ± 12.3 µM		36.7 ± 4.9 µM	> 100 µM	reduction of FIH inhibition compared to 4 (FIH): > 100 fold
O=C(CS(=O)(=O)c1ccccc1)/N=c1\sccn1O [compound 8]	> 100 µM	> 100 µM	> 100 µM	> 100 µM	> 100 µM	
COC(=O)Cc1cs/c(=N\C(=O)CS(=O)(=O)c2ccccc2)n1O [compound 9]	> 100 µM	96.7 ± 3.2 µM	> 100 µM	> 100 µM	> 100 µM	
CNC(=O)Cc1cs/c(=N\C(=O)CS(=O)(=O)c2ccccc2)n1O [compound 10]	77.5 ± 23.8 µM	43.6 ± 3.7 µM	> 100 µM	> 100 µM	> 100 µM	
N#CCc1cs/c(=N\C(=O)CS(=O)(=O)c2ccccc2)n1O [compound 11]	> 100 µM	> 100 µM	> 100 µM	> 100 µM	> 100 µM	

SMILES	IC50 (JMJD5; read-out: JMJD5 IC50)	IC50 (AspH)	IC50 (PHD2)	IC50 (FIH)	IC50 (KDM4A)	further results
O=C(CS(=O)(=O)c1ccccc1)/N=c1\scc(Cn2ccnn2)n1O [compound 12]	> 100 µM	83.3 ± 6.7 µM	> 100 µM	> 100 µM	> 100 µM	
O=C(O)CCc1cs/c(=N\C(=O)CS(=O)(=O)c2ccccc2)n1O [compound 13]	> 100 µM	47.3 ± 4.7 µM		2.2 ± 0.6 µM	> 100 µM	reduction of FIH inhibition compared to 4 (FIH): ~10 fold
CC(=O)/N=c1\scc(CC(=O)O)n1O [compound 14]	3.2 ± 0.7 µM	> 100 µM	> 100 µM	52.4 ± 30.4 µM	> 100 µM	reduction of FIH inhibition compared to 4 (FIH): > 200 fold
O=C(O)Cc1cs/c(=N\C(=O)CCS(=O)(=O)c2ccccc2)n1O [compound 15]	3.3 ± 1.5 µM	33 ± 12.1 µM	2.7 ± 0.2 µM	0.3 ± 0.05 µM	> 100 µM	
O=C(O)Cc1cs/c(=N\C(=O)CNC(=O)c2ccccc2)n1O [compound 16]	1.7 ± 0.3 µM	2.4 ± 1.1 µM		1.2 ± 0.2 µM	> 100 µM	
O=C(O)Cc1cs/c(=N\C(=O)CCC(=O)Nc2ccccc2)n1O [compound 18]	8.4 ± 2.7 µM	3.7 ± 1.5 µM	2.3 ± 0.1 µM	6 ± 1.2 µM	> 100 µM	
O=C(O)Cc1cs/c(=N\C(=O)CCNS(=O)(=O)c2ccccc2)n1O [compound 20]	13.4 ± 6.5 µM	23.3 ± 10.1 µM	6.5 ± 1.8 µM	1 ± 0.1 µM	> 100 µM	reduction of FIH inhibition compared to 4 (FIH): ~3 fold; selectivity for FIH inhibition over JMJD5 inhibition (FIH; as judged by IC50 values): ~13 fold; selectivity for FIH inhibition over PHD2 inhibition (FIH; as judged by IC50 values): ~6 fold
O=C(O)Cc1cs/c(=N\C(=O)CS(=O)(=O)Nc2ccccc2)n1O [compound 21]	2.8 ± 0.9 µM	0.76 ± 0.1 µM	0.57 ± 0.18 µM	0.36 ± 0.21 µM	> 100 µM	AspH inhibition potency relative to 4 (more potent) (AspH; IC50 comparison with compound 4): ~5 fold
O=C(O)Cc1cs/c(=N\C(=O)COc2ccccc2)n1O [compound 22]	1.2 ± 0.2 µM	20.2 ± 6.6 µM		0.75 ± 0.23 µM	> 100 µM	
O=C(O)Cc1cs/c(=N\C(=O)CNc2ccccc2)n1O [compound 23]	4.7 ± 1.1 µM	11.1 ± 0.4 µM		3.2 ± 1.1 µM	71.6 ± 11.8 µM	
O=C(O)Cc1cs/c(=N\C(=O)C2CCCN(S(=O)(=O)c3ccccc3)C2)n1O (stereo not drawn) [compound 27]	13.4 ± 1 µM	49.1 ± 1.7 µM	11 ± 1.6 µM	0.87 ± 0.04 µM	> 100 µM	
O=C(O)Cc1cs/c(=N\C(=O)C2CCCN2S(=O)(=O)c2ccccc2)n1O (stereo not drawn) [compound 28]	2.6 ± 0.2 µM	24.9 ± 12 µM	12.7 ± 1.8 µM	2.1 ± 1.5 µM	> 100 µM	
CC1(C(=O)/N=c2\scc(CC(=O)O)n2O)CCN(S(=O)(=O)c2ccccc2)C1 (stereo not drawn) [compound 29]	> 100 µM	> 100 µM	> 100 µM	> 100 µM	> 100 µM	
O=C(O)Cc1csc(=NC(=O)C2CCN(S(=O)(=O)c3ccccc3Cl)C2)n1O (stereo not drawn) [compound 33]	11.9 ± 1.8 µM	30.3 ± 12.6 µM	8 ± 0.2 µM	0.39 ± 0.04 µM	> 100 µM	
O=C(O)Cc1csc(=NC(=O)C2CCN(S(=O)(=O)c3cccc(Cl)c3)C2)n1O (stereo not drawn) [compound 34]	18.5 ± 1 µM	35 µM	14.6 ± 3.2 µM	0.44 ± 0.03 µM	> 100 µM	
O=C(O)Cc1csc(=NC(=O)C2CCN(S(=O)(=O)c3ccc(Cl)cc3)C2)n1O (stereo not drawn) [compound 35]	37.7 ± 0.9 µM	28.8 ± 8.9 µM	9.2 ± 0.4 µM	0.46 ± 0.01 µM	> 100 µM	
COc1ccc(S(=O)(=O)N2CCC(C(=O)N=c3scc(CC(=O)O)n3O)C2)cc1 (stereo not drawn) [compound 36]	16 ± 6.8 µM	36.6 ± 2.8 µM	9.8 ± 0.5 µM	0.46 ± 0.01 µM	> 100 µM	
O=C(O)Cc1csc(=NC(=O)C2CCN(S(=O)(=O)c3ccc(C(F)(F)F)cc3)C2)n1O (stereo not drawn) [compound 37]	63.2 ± 6.1 µM	36 ± 0.7 µM	15.2 ± 3.6 µM	0.47 ± 0.07 µM	> 100 µM	
O=C(O)Cc1csc(=NC(=O)C2CCN(S(=O)(=O)c3ccc4ccccc4c3)C2)n1O (stereo not drawn) [compound 40]	62.8 ± 0.4 µM	40.1 ± 2.2 µM	5.2 ± 1.1 µM	0.45 ± 0.08 µM	> 100 µM	
O=C(O)Cc1csc(=NC(=O)C2CCN(S(=O)(=O)c3cccs3)C2)n1O (stereo not drawn) [compound 41]	15.4 ± 7.1 µM	30.3 ± 8 µM	11.2 ± 2.3 µM	0.47 ± 0.07 µM	> 100 µM	
